From PMC2193175 (The Journal of Experimental Medicine, 2000)
Read-outs that look alike come from different tables or passages of the source.

Assays:
[1] = target: T1, cysteine-rich domain of the murine macrophage mannose receptor (Cys-MR) (Mus musculus, UniProt Q61830); assay: microwell inhibition of Cys-MR-Fc binding to immobilized human lutropin
T1 sequence (Q61830 20-154): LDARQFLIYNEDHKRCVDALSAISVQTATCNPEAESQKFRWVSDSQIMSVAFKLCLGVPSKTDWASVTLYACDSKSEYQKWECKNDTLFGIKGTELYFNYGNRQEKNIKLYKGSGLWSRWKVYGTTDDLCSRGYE

[2] = target: T1, cysteine-rich domain of the murine macrophage mannose receptor (Cys-MR); assay: as above; remark: listed apart in the source

| IC50 [1] | IC50 [2] | SMILES |
| --- | --- | --- |
| 180 µM | – | CC(=O)N[C@H]1C(O)O[C@H](CO)[C@H](OS(=O)(=O)O)[C@@H]1O (some centres unmarked) [4-sulfated N-acetylgalactosamine] |
| – | 1300 µM | CC(=O)N[C@H]1C(O)O[C@H](COS(=O)(=O)O)[C@H](O)[C@@H]1O (some centres unmarked) [6-sulfated N-acetylgalactosamine] |
